Source: US9051331B2, “Substituted dihydro benzocycloalkyloxymethyl oxazolopyrimidinones, preparation and use thereof” (Sanofi, priority 2009, dated 2015)

Tests used:
[1] = DBA/2 mice; cited from earlier work
[2] = target: rat or human mGluR2 receptor (UniProt Q14416); assay: calcium ion (Ca2+) mobilization assay for allosteric modulators of mGluR2; type: cell-based; conditions: potency at approx. EC10 for glutamate; rat or human receptor not given; read-out: mGluR2 Potentiation (EC50)
Description: A calcium ion (Ca^2) mobilization assay was used to identify and determine the activity for allosteric modulators of the rat or human mGluR2 receptor. Two formats were used: (1) examine the ability of glutamate to affect the potency of the modulator, by looking at a concentration-response curve of compound at different submaximal glutamate concentrations, and (2) look at the ability of the modulator to affect the potency of glutamate by looking at a concentration-response curve of glutamate at a maximal modulator concentration.
To monitor functional receptor response using calcium mobilization, a cell line stably expressing the rat or human mGluR2 receptor (normally coupled to its intracellular effector molecules through an inhibitory G-protein, Gαi) and Gα16, in a tetracycline-inducible vector was created. Gα16 can promiscuously couple Gs and Gi-coupled receptors to the inositol phospholipid signaling pathway by activating phospholipase Cβ resulting in a Ca^2+ signal (normally Gαq-mediated), that can be monitored with fluorescence plate readers such as FLIPR (Molecular Devices, Fluorescence Imaging Plate Reader), FDSS6000 (Hamamatsu, Fluorescence Drug Screening System), or FlexStation (Molecular Devices). The Ca^2+ mobilization assay was based on the detection of intracellular calcium changes using a selective, calcium-chelating dye: Fluo-3, Fluo-4, or Calcium-3. A large fluorescence intensity increase was observed upon calcium association with the dye. The dye was delivered either with the acetoxy-methyl ester, and washed off, or using a no-wash kit (Molecular Devices). Fluorescence signals stimulated by glutamate were recorded and used to generate the following pharmacological parameters: (1) the potency (EC50) of the compound(s) of interest at approx. EC 10 for glutamate at the rat and human mGluR2 receptors respectively, and (2) a fold-shift of the glutamate EC50 by maximal concentration of compound(s) of interest.

[3] = pretreatment, healthy human subjects; cited from earlier work
[4] = pentylenetetrazole- and picrotoxin-induced; cited from earlier work
[5] = rat; cited from earlier work
[6] = compared to placebo; cited from earlier work
[7] = some animal models; cited from earlier work
[8] = mice; cited from earlier work

Compound: N[C@H](C(=O)O)c1ccc(C(=O)O)c(O)c1 [(S)-4-carboxy-3-hydroxyphenylglycine]
- protection against audiogenic seizures [1]: protects against audiogenic seizures

Compound: O=c1ccn2c(n1)O[C@H](COc1ccc3c(c1)CCC3)C2 [Comparative Ex. 1, (S)-2-(Indan-5-yloxymethyl)-2,3-dihydro-oxazolo[3,2-a]pyrimidin-7-one]
- EC50 [2]: 445 nM

Compound: O=c1ccn2c(n1)O[C@H](COc1ccc3c(c1)CCCC3)C2 [Comparative Ex. 2, (S)-2-(5,6,7,8-Tetrahydro-naphthalen-2-yloxymethyl)-2,3-dihydro-oxazolo[3,2-a]pyrimidin-7-one]
- EC50 [2]: 224 nM

Compound: CC1(C)CCc2cc(OC[C@H]3Cn4ccc(=O)nc4O3)ccc21 [Comparative Ex. 3, (R)-2-(1,1-Dimethyl-indan-5-yloxymethyl)-2,3-dihydro-oxazolo[3,2-a]pyrimidin-7-one]
- EC50 [2]: 9100 nM

Compound: CC1(C)CCc2cc(OC[C@@H]3Cn4ccc(=O)nc4O3)ccc21 [Example 1, (S)-2-(1,1-Dimethyl-indan-5-yloxymethyl)-2,3-dihydro-oxazolo[3,2-a]pyrimidin-7-one]
- EC50 [2]: 29 nM

Compound: CC1(C)CCCc2cc(OC[C@@H]3Cn4ccc(=O)nc4O3)ccc21 [Example 2, (S)-2-(5,5-Dimethyl-5,6,7,8-tetrahydro-naphthalen-2-yloxymethyl)-2,3-dihydro-oxazolo[3,2-a]pyrimidin-7-one]
- EC50 [2]: 19 nM

Compound: CC1(C)CCCCc2cc(OC[C@@H]3Cn4ccc(=O)nc4O3)ccc21 [Example 3, (S)-2-(5,5-Dimethyl-6,7,8,9-tetrahydro-5H-benzocyclohepten-2-yloxymethyl)-2,3-dihydro-oxazolo[3,2-a]pyrimidin-7-one]
- EC50 [2]: 11 nM

Compound: CC1(C)CCC(C)(C)c2cc(OC[C@@H]3Cn4ccc(=O)nc4O3)ccc21 [Example 4, (S)-2-(5,5,8,8-Tetramethyl-5,6,7,8-tetrahydro-naphthalen-2-yloxymethyl)-2,3-dihydro-oxazolo[3,2-a]pyrimidin-7-one]
- EC50 [2]: 15 nM

Compound: CCc1cn2c(nc1=O)O[C@H](COc1ccc3c(c1)CCC3(C)C)C2 [Example 7, (S)-2-(1,1-Dimethyl-indan-5-yloxymethyl)-6-ethyl-2,3-dihydro-oxazolo[3,2-a]pyrimidin-7-one]
- EC50 [2]: 20 nM

Compound: CCc1cn2c(nc1=O)O[C@H](COc1ccc3c(c1)CCCC3(C)C)C2 [Example 8, (S)-2-(5,5-Dimethyl-5,6,7,8-tetrahydro-naphthalen-2-yloxymethyl)-6-ethyl-2,3-dihydro-oxazolo[3,2-a]pyrimidin-7-one]
- EC50 [2]: 17 nM

Compound: CCC(F)(F)c1cc(=O)nc2n1C[C@@H](COc1ccc3c(c1)CCC3(C)C)O2 [Example 9, (S)-5-(1,1-Difluoro-propyl)-2-(1,1-dimethyl-indan-5-yloxymethyl)-2,3-dihydro-oxazolo[3,2-a]pyrimidin-7-one]
- EC50 [2]: 64 nM

Compound: CCC(F)(F)c1cc(=O)nc2n1C[C@@H](COc1ccc3c(c1)CCCC3(C)C)O2 [Example 10, (S)-5-(1,1-Difluoro-propyl)-2-(5,5-dimethyl-5,6,7,8-tetrahydro-naphthalen-2-yloxymethyl)-2,3-dihydro-oxazolo[3,2-a]pyrimidin-7-one]
- EC50 [2]: 15 nM

Compound: N[C@@]1(C(=O)O)CC[C@H]2[C@H](C(=O)O)[C@H]21 [LY354740]
- effect on ketamine-disrupted working memory [3]: attenuation of the disruptive effects
- effect on chemically induced seizures [4]: attenuates pentylenetetrazole- and picrotoxin-induced seizures

Compound: N[C@@]1(C(=O)O)CO[C@H]2[C@H](C(=O)O)[C@H]21 [LY379268]
- effect on REM sleep and fast EEG [5]: suppresses rapid eye movement (REM) sleep and fast EEG

Compound: CSCC[C@H](N)C(=O)N[C@@]1(C(=O)O)CS(=O)(=O)[C@H]2[C@H](C(=O)O)[C@H]21 [LY2140023]
- positive and negative symptoms of schizophrenia [6]: statistically significant improvements

Compound: N[C@]1(C(=O)O)[C@H]2[C@@H](C[C@H]1OCc1ccc(Cl)c(Cl)c1)[C@]2(F)C(=O)O [MGS0039]
- antidepressant-like effects [7]: dose-dependent antidepressant-like effects

Compound: Cc1c(OCc2cccc(-c3ccc(C(=O)O)cc3)c2)cc2c(c1C)C(=O)C(C1CCCC1)C2 (stereo not drawn) [biphenyl-indanone A]
- antipsychotic- and anxiolytic-like effects [8]: antipsychotic- and anxiolytic-like effects in mice
